# ChEMBL document CHEMBL5543113, “Amphiphilic α-Peptoid-deoxynojirimycin Conjugate-based Multivalent Glycosidase Inhibitor for Hypoglycemic Effect and Fluorescence Imaging” (J Med Chem, 2024)
# Activity calls are given as the source filed them. The calls are words filed in the database; no cut-off is given here.
# Tests used:
# [1] = tested on: Mus musculus; assay: Hypoglycemic activity in KKAy diabetic mouse model assessed as blood glucose level at 1.6 mg/kg, po co-administered with maltose and measured after 120 mins by glucometer (reference value: 582.6 +/- 22.9 mg/dl); format: functional; details: 2 h
# [2] = Drug uptake in C57/6J mouse kidney assessed as increase in fluorescence at 5 x 10^-5M, po administered as Nile red complex and measured after 4 hrs by fluorescence imaging analysis; format: ADME, organism-based; details: in vivo, dose 5 10^-5M
# [3] = Inhibition of Aspergillus niger Alpha-glucosidase incubated for 10 mins by Lineweaver-Burk plot analysis
# [4] = tested on: Mus musculus; assay: Hypoglycemic activity in C57BL/6J mouse assessed as decrease in PBG level at 0.8 mg/kg, po co-administered with maltose and measured after 15 mins by glucometer relative to control; format: functional; design: scale not given: the % may be the effect or the level left; details: 0.25 h
# [5] = tested on: Aspergillus niger; assay: Potency index, ratio of 1-deoxynojirimycin Ki to test compound Ki for inhibition of Aspergillus niger Alpha-glucosidase incubated for 10 mins by Lineweaver-Burk plot analysis
# [6] = tested on: Mus musculus; assay: Hypoglycemic activity in C57BL/6J mouse assessed as reduction in PBG level measured per DNJ unit at 0.8 mg/kg, po co-administered with maltose and measured at 15 to 30 mins by glucometer relative to control; format: functional; design: scale not given: the % may be the effect or the level left; details: time 15-30 min
# [7] = tested on: Mus musculus; assay: Hypoglycemic activity in KKAy diabetic mouse model assessed as decrease in PBG level at 1.6 mg/kg, po co-administered with maltose and measured after 120 mins by glucometer relative to control; format: functional; design: scale not given: the % may be the effect or the level left; details: 2 h
# [8] = tested on: Mus musculus; assay: Hypoglycemic activity in C57BL/6J mouse assessed as decrease in PBG level at 1.6 mg/kg, po co-administered with maltose and measured after 15 mins by glucometer relative to control; format: functional; design: scale not given: the % may be the effect or the level left; details: 0.25 h
# [9] = Self assembly property of the compound in water assessed as mean diameter at 1 x 10^-4 M by dynamic light scattering spectrometric analysis; format: physicochemical; details: buffer, 100 µM; dose 1 10^-4M
# [10] = Drug uptake in C57/6J mouse small intestine assessed as increase in fluorescence at 5 x 10^-5M, po administered as Nile red complex and measured upto 2 hrs by fluorescence imaging analysis; format: ADME, organism-based; details: in vivo, dose 5 10^-5M
# [11] = tested on: Mus musculus; assay: Hypoglycemic activity in C57BL/6J mouse assessed as blood glucose level at 0.4 mg/kg, po co-administered with maltose and measured after 30 mins by glucometer (380.8 +/- 20.6 mg/dL); format: functional; details: 0.5 h
# [12] = tested on: Mus musculus; assay: Hypoglycemic activity in C57BL/6J mouse assessed as decrease in PBG level at 0.4 mg/kg, po co-administered with maltose and measured after 15 mins by glucometer relative to control; format: functional; design: scale not given: the % may be the effect or the level left; details: 0.25 h
# [13] = tested on: Mus musculus; assay: Relative hypoglycemic rate in KKAy diabetic mouse model assessed as molar reduction in PBG level by measuring fold change at 1.6 mg/kg, po co-administered with maltose and measured after 30 mins by glucometer relative to miglitol; format: functional; details: 0.5 h
# [14] = tested on: Mus musculus; assay: Hypoglycemic activity in C57BL/6J mouse assessed as reduction in PBG level measured per DNJ unit at 0.4 mg/kg, po co-administered with maltose and measured at 15 to 30 mins by glucometer relative to control; format: functional; design: scale not given: the % may be the effect or the level left; details: time 15-30 min
# [15] = Self assembly property of compound in citric acid-phosphate buffer at pH 2 to 7 at 1 x 10^-4 M assessed as diameter by dynamic light scattering spectrometric analysis; format: physicochemical; details: pH 2, 100 µM, dose 1 10^-4M
# [16] = Toxicity in C57BL/6J mouse assessed as effect on heart morphology at 1.6 mg/kg, po co-administered with maltose for 7 days by Hematoxylin and eosin staining based analysis; format: organism-based; details: in vivo, 168 h, time 7 day
# [17] = Inhibition of C57BL/6J mouse Alpha-glucosidase incubated for 10 mins by Lineweaver-Burk plot analysis
# [18] = tested on: Mus musculus; assay: Binding affinity to mouse alpha-glucosidase assessed as decrease in fluorescence intensity at 200 uM administered as Nile red complex in presence of miglitol by fluorescence spectra analysis
# [19] = Self assembly property of compound assessed as Nilered-compound complex formation by measuring increase in fluorescence intensity by Nile red dye based fluorescence analysis; format: physicochemical
# [20] = Stability of compound in simulated gastric fluid assessed as fluorescence intensity at 2 x 10^-4 M administered as Nile red complex by fluorescence spectra analysis (reference value: 3548); format: ADME; details: simulated gi fluid, 200 µM; dose 2 10^-4M
# [21] = Stability of compound assessed as fluorescence intensity at 2 x 10^-4 M administered as Nile red complex at pH 1.0 to 7.0 by fluorescence spectra analysis 9Rvb = 3548); format: physicochemical; details: pH 1, 200 µM; dose 2 10^-4M
# [22] = tested on: Oryza sativa; assay: Potency index, ratio of miglitol Ki to test compound Ki for inhibition of rice Alpha-glucosidase incubated for 10 mins by Lineweaver-Burk plot analysis
# [23] = tested on: Mus musculus; assay: Relative hypoglycemic rate in C57BL/6J mouse assessed as reduction in PBG level by measuring fold change at 1.6 mg/kg, po co-administered with maltose and measured after 30 mins by glucometer relative to miglitol; format: functional; details: 0.5 h
# [24] = tested on: Mus musculus; assay: Hypoglycemic activity in C57BL/6J mouse assessed as blood glucose level at 1.6 mg/kg, po co-administered with maltose and measured after 15 mins by glucometer (380.8 +/- 20.6 mg/dL); format: functional; details: 0.25 h
# [25] = Drug uptake in C57/6J mouse liver assessed as increase in fluorescence at 5 x 10^-5M, po administered as Nile red complex and measured after 4 hrs by fluorescence imaging analysis; format: ADME, organism-based; details: in vivo, dose 5 10^-5M
# [26] = Toxicity in C57BL/6J mouse assessed as effect on kidney morphology at 1.6 mg/kg, po co-administered with maltose for 7 days by Hematoxylin and eosin staining based analysis; format: organism-based; details: in vivo, 168 h, time 7 day
# [27] = target: Alpha-glucosidase (Saccharomyces cerevisiae S288c) (UniProt P53341+P38158+P07265); assay: Inhibition of Saccharomyces cerevisiae Alpha-glucosidase at 1 mM incubated for 10 mins by absorbance based microplate spectrophotometric analysis; format: protein assay
# [28] = tested on: Mus musculus; assay: Hypoglycemic activity in C57BL/6J mouse assessed as decrease in PBG level at 0.4 mg/kg, po co-administered with maltose and measured after 30 mins by glucometer relative to control; format: functional; design: scale not given: the % may be the effect or the level left; details: 0.5 h
# [29] = tested on: Mus musculus; assay: Hypoglycemic activity in C57BL/6J mouse assessed as blood glucose level at 0.8 mg/kg, po co-administered with maltose and measured after 15 mins by glucometer (380.8 +/- 20.6 mg/dl); format: functional; details: 0.25 h
# [30] = tested on: Mus musculus; assay: Binding affinity to mouse alpha-glucosidase assessed as DNJ fluorescence intensity at 2 x 10^-4 M administered as Nile red complex in presence of DNJ by fluorescence spectra analysis (reference value: 1627); details: dose 2.0 10^-4M
# [31] = tested on: Mus musculus; assay: Hypoglycemic activity in KKAy diabetic mouse model assessed as decrease in PBG level at 1.6 mg/kg, po co-administered with maltose and measured after 30 mins by glucometer relative to control; format: functional; design: scale not given: the % may be the effect or the level left; details: 0.5 h
# [32] = tested on: Mus musculus; assay: Hypoglycemic activity in KKAy diabetic mouse model assessed as molar decrease in PBG level at 1.6 mg/kg, po co-administered with maltose and measured after 30 mins by glucometer relative to control; format: functional; design: scale not given: the % may be the effect or the level left; details: 0.5 h
# [33] = Binding affinity to mouse alpha-glucosidase assessed as binding constant administered as Nile red complex by fluorescence spectra analysis
smiles,measurement,setting,value
CCCCCCCCCCCCCCCCCCNC(=O)CN(Cc1cn(CCCCCCN2C[C@H](O)[C@@H](O)[C@H](O)[C@H]2CO)nn1)C(=O)CN(Cc1cn(CCCCCCN2C[C@H](O)[C@@H](O)[C@H](O)[C@H]2CO)nn1)C(=O)CN(Cc1cn(CCCCCCN2C[C@H](O)[C@@H](O)[C@H](O)[C@H]2CO)nn1)C(=O)CN(Cc1cn(CCCCCCN2C[C@H](O)[C@@H](O)[C@H](O)[C@H]2CO)nn1)C(C)=O,Activity,[1],351 mg/dL
same,Drug uptake,[2],Not Active
same,Ki,[3],170 nM
same,Activity,[4],12.2%
same,Ratio Ki,[5],21.2
same,Activity,[6],14.2%
same,Activity,[7],19.9%
same,Activity,[8],18.8%
same,Activity,[9],283 nm
same,Drug uptake,[10],Active
same,Activity,[11],309.9 mg/dL
same,Activity,[12],6.5%
same,fold change (FC),[13],6.9
same,Activity,[14],22.2%
same,Activity,[15],138 nm
same,Activity,[16],Non-Toxic
same,Ki,[17],2700 nM
same,Activity,[18],inactive
same,Activity,[19],Dose-Dependent Effect
same,Flu intensity,[20],862
same,Flu intensity,[21],1001
same,Ratio Ki,[22],6.7
same,fold change (FC),[23],1.8
same,Activity,[24],302.04 mg/dL
same,Drug uptake,[25],Not Active
same,Activity,[26],Non-Toxic
same,inhibition,[27],inactive
same,Activity,[28],18.6%
same,Activity,[29],326.5 mg/dL
same,Flu intensity,[30],2300
same,Activity,[31],26.2%
same,Activity,[32],7.6%
same,Ka,[33],5680 M⁻¹
